Laboratory results reported in ChEMBL document CHEMBL1159153, “Synthesis and biological activity of 3,4,5-trihydroxy etoposide” (Bioorg Med Chem Lett, 1993).
Converted amounts (≈) assume the structure as drawn.

Legend:
[1] = system: Mus musculus; assay: Long time survivors of mice alive/total on day 30 after administration of the compound; 1 survived out of 4 mice.; format: functional
[2] = system: Mus musculus; assay: Long-time survivors of mice alive/total on day 30 after administration (60 mg/kg per injection) intraperitoneally on days 1 and 5; format: functional
[3] = system: Mus musculus; assay: Long time survivors of mice alive/total on day 30 after administration (60 mg/kg per injection) intraperitoneally on days 1 and 5; 2 survived out of 4 mice.; format: functional
[4] = system: Mus musculus; assay: Tested for percent median survival time of drug-treated mice compared to saline -treated control at a dose of 120 mg/kg intraperitoneally; format: functional; conditions: route intraperitoneal
[5] = system: Mus musculus; assay: Tested for percent median survival time of drug-treated mice compared to saline -treated control at a dose of 40 mg/kg intraperitoneally; format: functional; conditions: route intraperitoneal
[6] = system: Mus musculus; assay: Long time survivors of mice alive/total on day 30 after administration of the compound; 3 survived out of 4 mice.; format: functional
[7] = system: Mus musculus; assay: Tested for percent median survival time of drug-treated mice compared to saline -treated control at a dose of 80 mg/kg intraperitoneally; format: functional; conditions: route intraperitoneal
[8] = system: Mus musculus; assay: Tested for percent median survival time of drug-treated mice compared to saline -treated control at a dose of 100 mg/kg intraperitoneally; format: functional; conditions: route intraperitoneal
[9] = system: Mus musculus; assay: Long time survivors of mice alive/total on day 30 after administration (60 mg/kg per injection) intraperitoneally on days 1 and 5; 4 survived out of 4 mice; format: functional
[10] = system: HCT-116; assay: Tested for in vitro cytotoxicity against HCT116 cells; format: functional, cell-based; conditions: Homo sapiens
[11] = system: Mus musculus; assay: Tested for percent median survival time of drug-treated mice compared to saline -treated control at a dose of 50 mg/kg intraperitoneally; format: functional; conditions: route intraperitoneal
[12] = system: Mus musculus; assay: Tested for percent median survival time of drug-treated mice compared to saline -treated control at a dose of 25 mg/kg intraperitoneally; format: functional; conditions: route intraperitoneal
[13] = Ratio of inhibition of HCT116 to that of inhibition of HCT/VP 35 cells; format: functional, HCT-116
[14] = system: Mus musculus; assay: Tested for percent median survival time of drug-treated mice compared to saline -treated control at a dose of 38 mg/kg intraperitoneally; format: functional; conditions: route intraperitoneal
[15] = system: HCT cell line; assay: Compound was evaluated for in vitro cytotoxicity against HCT/VP35 cells; format: functional, cell-based; conditions: Homo sapiens
[16] = system: Mus musculus; assay: Tested for percent median survival time of drug-treated mice compared to saline -treated control at a dose of 150 mg/kg intraperitoneally; format: functional; conditions: route intraperitoneal
[17] = system: Mus musculus; assay: Tested for percent median survival time of drug-treated mice compared to saline -treated control at a dose of 75 mg/kg intraperitoneally; format: functional; conditions: route intraperitoneal
[18] = system: Mus musculus; assay: Long-time survivors of mice alive/total on day 30 after administration (100 mg/kg) intraperitoneally on days 5 and 8 (experiment 1); format: functional

Which LTS [1] does the source give for `COC1=CC([C@@H]2c3cc4c(cc3[C@@H](O[C@@H]3O[C@@H]5CO[C@@H](C)O[C@H]5[C@H](O)[C@H]3O)[C@H]3COC(=O)[C@@H]32)OCO4)=CC(=O)C1=O` here?
Its LTS is >1.

What about the Max T/C [2] of the same molecule?
The Max T/C was > 595%.

What about the LTS [3] of the same molecule?
The LTS was 2.

And the T/C [4]?
Its T/C is 447.

And the T/C [5]?
The T/C was 274.

What about the LTS [6] of the same molecule?
The LTS was 3.

What about the T/C [7] of the same molecule?
The T/C was >621.

Which results are given for `COc1cc([C@@H]2c3cc4c(cc3[C@@H](O[C@@H]3O[C@@H]5CO[C@@H](C)O[C@H]5[C@H](O)[C@H]3O)[C@H]3COC(=O)[C@H]23)OCO4)cc(O)c1O`?
LTS [1]: 1; T/C [8]: 344; Max T/C [2]: > 563%; LTS [9]: 4; LTS [6]: 2; IC50 [10]: 35 µg/mL (≈ 60.9 µM); T/C [11]: >413; T/C [12]: 250

Which results are given for `C[C@@H]1OC[C@H]2O[C@@H](O[C@@H]3c4cc5c(cc4[C@@H](c4cc(O)c(O)c(O)c4)[C@H]4C(=O)OC[C@@H]43)OCO5)[C@H](O)[C@@H](O)[C@@H]2O1`?
Ratio [13]: 0.87; T/C [14]: 100; IC50 [15]: 68.9 µg/mL (≈ 123 µM); IC50 [10]: 79 µg/mL (≈ 141 µM); T/C [16]: 150; T/C [17]: 130; Max T/C [18]: 230%

For `COc1cc([C@@H]2c3cc4c(cc3[C@@H](O[C@@H]3O[C@@H]5CO[C@@H](C)O[C@H]5[C@H](O)[C@H]3O)[C@H]3COC(=O)[C@H]23)OCO4)cc(OC)c1O` [ETOPOSIDE], which Ratio [13] is on record?
Its Ratio is 15.

What about the IC50 [15] of the same molecule?
The IC50 was 5.2 µg/mL (≈ 8.84 µM).

What about the IC50 [10] of the same molecule?
The IC50 was 0.35 µg/mL (≈ 0.595 µM).
